In ChEMBL document CHEMBL5126604, “Design, Synthesis, and Biological Evaluation of Pyrrole-2-carboxamide Derivatives as Mycobacterial Membrane Protein Large 3 Inhibitors for Treating Drug-Resistant Tuberculosis” (J Med Chem, 2022) one finds MIC data, which are given here for three molecules.

Assay [1] concerns Mycobacterium tuberculosis. In words: microbe, parasite or virus in culture. The settings on record: Mycobacterium tuberculosis, 13946, 168 h.
The subject of assay [2] is Mycobacterium tuberculosis. In words: microbe, parasite or virus in culture. The settings on record: Mycobacterium tuberculosis, 14862, 168 h.

As to `O=C(NC1C2CC3CC(C2)CC1C3)c1cc(-c2ccc(F)nc2F)c[nH]1` (stereo unspecified), the MIC in assay [1] and in assay [2] was less than 0.016 µg/mL throughout.

With `O=C(NC12CC3CC(CC(C3)C1)C2)c1cc(-c2ccc(F)nc2F)c[nH]1`, the MIC in assay [1] and in assay [2] was less than 0.016 µg/mL each time.

For `O=C(NC12CC3CC(CC(C3)C1)C2)c1cc(-c2ccc(F)cc2F)c[nH]1`, the MIC in assay [1] and in assay [2] was less than 0.016 µg/mL each time.
